{
  "source": "patent US11229623B2",
  "about": "(GlaxoSmithKline Intellectual Property (No.2) Limited, priority 2016, dated 2022)",
  "note": "Structures can show the parent of a compound that is named as a salt.",
  "data": [
    {"biological_target": "T1, human TRPV4 (Homo sapiens, UniProt Q9HBA0)", "T1 construct": "expressed in transfected cells; host or cells: BHK/AC9 cells transduced with BacMam virus", "T1 sequence (Q9HBA0 whole entry)": "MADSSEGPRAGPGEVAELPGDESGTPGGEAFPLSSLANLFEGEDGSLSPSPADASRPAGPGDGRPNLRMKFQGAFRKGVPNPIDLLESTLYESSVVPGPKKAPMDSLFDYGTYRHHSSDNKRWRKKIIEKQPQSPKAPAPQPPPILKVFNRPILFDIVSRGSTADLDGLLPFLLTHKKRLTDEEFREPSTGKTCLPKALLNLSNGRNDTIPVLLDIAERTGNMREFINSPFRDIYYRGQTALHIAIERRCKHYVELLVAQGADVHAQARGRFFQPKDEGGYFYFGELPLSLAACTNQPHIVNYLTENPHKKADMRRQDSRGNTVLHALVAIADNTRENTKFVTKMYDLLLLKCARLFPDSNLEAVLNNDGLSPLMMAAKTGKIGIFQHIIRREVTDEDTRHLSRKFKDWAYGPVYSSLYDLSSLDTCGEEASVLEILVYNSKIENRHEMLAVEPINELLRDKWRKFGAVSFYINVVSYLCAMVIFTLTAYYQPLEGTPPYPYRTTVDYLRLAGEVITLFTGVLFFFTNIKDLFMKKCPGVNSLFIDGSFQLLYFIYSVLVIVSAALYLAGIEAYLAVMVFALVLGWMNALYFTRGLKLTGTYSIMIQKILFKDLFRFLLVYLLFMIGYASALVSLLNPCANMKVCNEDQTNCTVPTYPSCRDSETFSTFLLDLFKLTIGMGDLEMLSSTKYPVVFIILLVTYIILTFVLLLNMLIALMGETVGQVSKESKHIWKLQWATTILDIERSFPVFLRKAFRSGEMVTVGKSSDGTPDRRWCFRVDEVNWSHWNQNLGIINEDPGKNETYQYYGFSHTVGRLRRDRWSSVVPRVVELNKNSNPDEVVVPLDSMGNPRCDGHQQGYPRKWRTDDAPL", "assay": "FLIPR assay for hTRPV4 expressed in BHK cells: inhibition of Agonist Compound-induced calcium signal", "type": "cell-based", "conditions": "hTRPV4 in BHK/AC9 cells, FLIPR calcium signal, agonist at EC80; reported as range class; read-out: IC50", "procedure,_shortened": "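BHK/AC9 cells transduced with BacMam human TRPV4 (MOI 78), plated 15,000 per well and cultured 24 h at 37° C. Loaded with 2 μM Fluo-4 AM plus 500 μM Brilliant Black in HBSS for 1-1.5 h at room temperature in the dark; intracellular calcium signal read by FLIPR fluorescence.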", "units": {"IC50": "µM"}, "values": [
      {"smiles": "CC(C)(C)C#Cc1ccc(S(=O)(=O)N2C[C@H](Oc3ccc(C#N)c(F)c3)[C@](O)(CO)C2)nc1", "note": "[Example 229, 4-(((3S,4R)-1-((5-(3,3-dimethylbut-1-yn-1-yl)pyridin-2-yl)sulfonyl)-4-hydroxy-4-(hydroxymethyl)pyrrolidin-3-yl)oxy)-2-fluorobenzonitrile]", "IC50": "0.01 to 0.1"},
      {"smiles": "N#Cc1ccc(O[C@H]2CN(S(=O)(=O)c3ccc(C#Cc4ccccc4)cn3)C[C@@]2(O)CO)cc1F", "note": "[Example 230, 2-fluoro-4-(((3S,4R)-4-hydroxy-4-(hydroxymethyl)-1-((5-(phenylethynyl)pyridin-2-yl)sulfonyl)pyrrolidin-3-yl)oxy)benzonitrile]", "IC50": "0.0001 to 0.01"},
      {"smiles": "N#Cc1ccc(S(=O)(=O)N2C[C@H](Oc3ccc(C#N)c(F)c3)[C@](O)(CO)C2)nc1", "note": "[Example 231, 6-(((3R,4S)-4-(4-cyano-3-fluorophenoxy)-3-hydroxy-3-(hydroxymethyl)pyrrolidin-1-yl)sulfonyl)nicotinonitrile]", "IC50": "0.01 to 0.1"},
      {"smiles": "N#Cc1ccc(O[C@H]2CN(S(=O)(=O)c3ccc(Cl)cn3)C[C@@]2(O)CN)cc1F", "note": "[Example 233, 4-(((3S,4S)-4-(aminomethyl)-1-((5-chloropyridin-2-yl)sulfonyl)-4-hydroxypyrrolidin-3-yl)oxy)-2-fluorobenzonitrile, Hydrochloride]", "IC50": "0.01 to 0.1"},
      {"smiles": "N#Cc1ccc(O[C@H]2CN(S(=O)(=O)c3ccc(Cl)cn3)C[C@]2(O)CN)cc1F", "note": "[Example 234, 4-(((3S,4R)-4-(aminomethyl)-1-((5-chloropyridin-2-yl)sulfonyl)-4-hydroxypyrrolidin-3-yl)oxy)-2-fluorobenzonitrile, Hydrochloride]", "IC50": "0.01 to 0.1"},
      {"smiles": "N#Cc1ccc(O[C@H]2CN(S(=O)(=O)c3ccc(Cl)cc3C#N)C[C@]2(O)CN)cc1F", "note": "[Example 235, 4-(((3S,4R)-4-(aminomethyl)-1-((4-chloro-2-cyanophenyl)sulfonyl)-4-hydroxypyrrolidin-3-yl)oxy)-2-fluorobenzonitrile, Hydrochloride]", "IC50": "0.0001 to 0.01"},
      {"smiles": "N#Cc1ccc(O[C@H]2CN(S(=O)(=O)c3ccc(Cl)cc3C#N)C[C@]2(O)CNCCO)cc1F", "note": "[Example 236, 4-(((3S,4R)-1-((4-chloro-2-cyanophenyl)sulfonyl)-4-hydroxy-4-(((2-hydroxyethyl)amino)methyl)pyrrolidin-3-yl)oxy)-2-fluorobenzonitrile, 2,2,2-trifluoroacetate]", "IC50": "0.0001 to 0.01"},
      {"smiles": "CNC[C@]1(O)CN(S(=O)(=O)c2ccc(C(F)(F)F)cc2C#N)C[C@@H]1Oc1ccc(C#N)c(F)c1", "note": "[Example 237, 4-(((3S,4S)-1-((2-cyano-4-(trifluoromethyl)phenyl)sulfonyl)-4-hydroxy-4-((methylamino)methyl)pyrrolidin-3-yl)oxy)-2-fluorobenzonitrile, 2,2,2-trifluoroacetate]", "IC50": "0.0001 to 0.01"},
      {"smiles": "CCNC[C@]1(O)CN(S(=O)(=O)c2ccc(C(F)(F)F)cc2C#N)C[C@@H]1Oc1ccc(C#N)c(F)c1", "note": "[Example 238, 4-(((3S,4S)-1-((2-cyano-4-(trifluoromethyl)phenyl)sulfonyl)-4-((ethylamino)methyl)-4-hydroxypyrrolidin-3-yl)oxy)-2-fluorobenzonitrile, 2,2,2-trifluoroacetate]", "IC50": "0.0001 to 0.01"},
      {"smiles": "CC(C)NC[C@]1(O)CN(S(=O)(=O)c2ccc(C(F)(F)F)cc2C#N)C[C@@H]1Oc1ccc(C#N)c(F)c1", "note": "[Example 239, 4-(((3S,4S)-1-((2-cyano-4-(trifluoromethyl)phenyl)sulfonyl)-4-hydroxy-4-((isopropylamino)methyl)pyrrolidin-3-yl)oxy)-2-fluorobenzonitrile, 2,2,2-trifluoroacetate]", "IC50": "0.0001 to 0.01"},
      {"smiles": "N#Cc1ccc(O[C@H]2CN(S(=O)(=O)c3ccc(Cl)cc3C#N)C[C@@]2(O)CN)cc1F", "note": "[Example 240, 4-(((3S,4S)-4-(aminomethyl)-1-((4-chloro-2-cyanophenyl)sulfonyl)-4-hydroxypyrrolidin-3-yl)oxy)-2-fluorobenzonitrile]", "IC50": "0.0001 to 0.01"},
      {"smiles": "Cn1ncc(Cl)c1S(=O)(=O)N1C[C@H](Oc2ccc(C#N)c(F)c2)[C@](O)(CN)C1", "note": "[Example 241, 4-(((3S,4S)-4-(aminomethyl)-1-((4-chloro-1-methyl-1H-pyrazol-5-yl)sulfonyl)-4-hydroxpyrrolidin-3-yl)oxy)-2-fluorobenzonitrile, 2,2,2-trifluoroacetate]", "IC50": "0.01 to 0.1"},
      {"smiles": "N#Cc1ccc(O[C@H]2CN(S(=O)(=O)c3ccc(F)cn3)C[C@@]2(O)CN)cc1F", "note": "[Example 242, 4-(((3S,4S)-4-(aminomethyl)-1-((5-fluoropyridin-2-yl)sulfonyl)-4-hydroxpyrrolidin-3-yl)oxy)-2-fluorobenzonitrile, 2,2,2-trifluoroacetate]", "IC50": "0.01 to 0.1"},
      {"smiles": "N#Cc1ccc(S(=O)(=O)N2C[C@H](Oc3ccc(C#N)c(F)c3)[C@](O)(CN)C2)cn1", "note": "[Example 243, 5-(((3S,4S)-3-(aminomethyl)-4-(4-cyano-3-fluorophenoxy)-3-hydroxpyrrolidin-1-yl)sulfonyl) picolinonitrile, 2,2,2-trifluoroacetate]", "IC50": "0.01 to 0.1"},
      {"smiles": "N#Cc1ccc(O[C@H]2CN(S(=O)(=O)c3ccc(C(F)F)cn3)C[C@@]2(O)CN)cc1F", "note": "[Example 244, 4-(((3S,4S)-4-(aminomethyl)-1-((5-(difluoromethyl)pyridin-2-yl)sulfonyl)-4-hydroxpyrrolidin-3-yl)oxy)-2-fluorobenzonitrile]", "IC50": "0.01 to 0.1"},
      {"smiles": "N#Cc1ccc(O[C@H]2CN(S(=O)(=O)c3ccc(C(F)(F)F)nc3)C[C@@]2(O)CN)cc1F", "note": "[Example 245, 4-(((3S,4S)-4-(aminomethyl)-4-hydroxy-1-((6-(trifluoromethyl)pyridin-3-yl)sulfonyl)pyrrolidin-3-yl)oxy)-2-fluorobenzonitrile, Hydrochloride]", "IC50": "0.01 to 0.1"},
      {"smiles": "N#Cc1ccc(O[C@H]2CN(S(=O)(=O)c3ccc(Cl)cn3)C[C@@]2(O)CN)cc1", "note": "[Example 246, 4-(((3S,4S)-4-(aminomethyl)-1-((5-chloropyridin-2-yl)sulfonyl)-4-hydroxpyrrolidin-3-yl)oxy)benzonitrile]", "IC50": "0.01 to 0.1"},
      {"smiles": "N#Cc1ccc(O[C@H]2CN(S(=O)(=O)c3ccc(OC(F)F)cn3)C[C@@]2(O)CN)cc1F", "note": "[Example 247, 4-(((3S,4S)-4-(aminomethyl)-1-((5-(difluoromethoxy)pyridin-2-yl)sulfonyl)-4-hydroxypyrrolidin-3-yl)oxy)-2-fluorobenzonitrile, 2,2,2-trifluoroacetate]", "IC50": "0.01 to 0.1"},
      {"smiles": "N#Cc1ccc(O[C@H]2CN(S(=O)(=O)c3ccc(OC(F)(F)F)cn3)C[C@@]2(O)CN)cc1F", "note": "[Example 248, 4-(((3S,4S)-4-(aminomethyl)-4-hydroxy-1-((5-(trifluoromethoxy)pyridin-2-yl)sulfonyl)pyrrolidin-3-yl)oxy)-2-fluorobenzonitrile]", "IC50": "0.01 to 0.1"},
      {"smiles": "N#Cc1ccc(O[C@H]2CN(S(=O)(=O)c3ccc(OC(F)(F)F)nc3)C[C@@]2(O)CN)cc1F", "note": "[Example 249, 4-(((3S,4S)-4-(aminomethyl)-4-hydroxy-1-((6-(trifluoromethoxy)pyridin-3-yl)sulfonyl)pyrrolidin-3-yl)oxy)-2-fluorobenzonitrile, Hydrochloride]", "IC50": "0.01 to 0.1"},
      {"smiles": "N#Cc1ccc(O[C@H]2CN(S(=O)(=O)c3ccc(I)cn3)C[C@@]2(O)CN)cc1F", "note": "[Example 250, 4-(((3S,4S)-4-(aminomethyl)-4-hydroxy-1-((5-iodopyridin-2-yl)sulfonyl)pyrrolidin-3-yl)oxy)-2-fluorobenzonitrile, 2,2,2-trifluoroacetate]", "IC50": "0.0001 to 0.01"},
      {"smiles": "N#Cc1ccc(O[C@H]2CN(S(=O)(=O)c3ccc(Br)cn3)C[C@@]2(O)CN)cc1F", "note": "[Example 251, 4-(((3S,4S)-4-(aminomethyl)-1-((5-bromopyridin-2-yl)sulfonyl)-4-hydroxpyrrolidin-3-yl)oxy)-2-fluorobenzonitrile, 2,2,2-trifluoroacetate]", "IC50": "0.0001 to 0.01"},
      {"smiles": "CN1CCO[C@]2(C1)CN(S(=O)(=O)c1ccc(Cl)cc1C#N)C[C@@H]2Oc1ccc(C#N)c(F)c1", "note": "[Example 252, 4-(((4S,5R)-2-((4-chloro-2-cyanophenyl)sulfonyl)-9-methyl-6-oxa-2,9-diazaspiro[4.5]decan-4-yl)oxy)-2-fluorobenzonitrile]", "IC50": "0.0001 to 0.01"},
      {"smiles": "N#Cc1ccc(O[C@H]2CN(S(=O)(=O)c3ccc(Cl)cc3C#N)C[C@@]23CNC(=O)O3)cc1F", "note": "[Example 254, 4-(((5S,9S)-7-((4-chloro-2-cyanophenyl)sulfonyl)-2-oxo-1-oxa-3,7-diazaspiro[4.4]nonan-9-yl)oxy)-2-fluorobenzonitrile]", "IC50": "0.01 to 0.1"},
      {"smiles": "N#Cc1ccc(O[C@H]2CN(S(=O)(=O)c3ccc(Cl)cc3C#N)C[C@]23CNC(=O)O3)cc1F", "note": "[Example 255, 4-(((5R,9S)-7-((4-chloro-2-cyanophenyl)sulfonyl)-2-oxo-1-oxa-3,7-diazaspiro[4.4]nonan-9-yl)oxy)-2-fluorobenzonitrile]", "IC50": "0.0001 to 0.01"},
      {"smiles": "C[C@@H](N)[C@]1(O)CN(S(=O)(=O)c2ccc(Cl)cn2)C[C@@H]1Oc1ccc(C#N)c(F)c1", "note": "[Example 256, 4-(((3S,4R)-4-((R)-1-aminoethyl)-1-((5-chloropyridin-2-yl)sulfonyl)-4-hydroxypyrrolidin-3-yl)oxy)-2-fluorobenzonitrile, 2,2,2-trifluoroacetate]", "IC50": "0.01 to 0.1"},
      {"smiles": "C[C@H](N)[C@]1(O)CN(S(=O)(=O)c2ccc(Cl)cn2)C[C@@H]1Oc1ccc(C#N)c(F)c1", "note": "[Example 257, 4-(((3S,4R)-4-((S)-1-aminoethyl)-1-((5-chloropyridin-2-yl)sulfonyl)-4-hydroxypyrrolidin-3-yl)oxy)-2-fluorobenzonitrile, 2,2,2-trifluoroacetate]", "IC50": "0.01 to 0.1"},
      {"smiles": "N#Cc1ccc(O[C@H]2CN(S(=O)(=O)c3ccc(OC(F)(F)F)cc3C#N)C[C@@]2(O)CO)cc1F", "note": "[compound 232, 4-(((3S,4R)-1-((2-cyano-4-(trifluoromethoxy)phenyl)sulfonyl)-4-hydroxy-4-(hydroxymethyl)pyrrolidin-3-yl)oxy)-2-fluorobenzonitrile]", "IC50": "0.0001 to 0.01"},
      {"smiles": "N#Cc1ccc(O[C@H]2CN(S(=O)(=O)c3ccc(Cl)cc3C#N)C[C@@]23CNCCO3)cc1F", "note": "[compound 253]", "IC50": "0.0001 to 0.01"}
    ]}
  ]
}
